The text below walks through data of paper PMC5701182, “The Aβ oligomer eliminating D-enantiomeric peptide RD2 improves cognition without changing plaque pathology” (Scientific Reports, 2017).

Series [1] concerns APP/PS1 mice. The experiment in a line: Body weight and general health during intraperitoneal minipump treatment. Type of series: in vivo, mouse. The note with it: female APP/PS1 mice, 5.3 mg/kg/day RD2 i.p. by Alzet minipump. The procedure: For this study, 21 APP/PS1 double transgenic mice (APPSwedish/PS1ΔE9)[36] were used. The very well characterized APP/PS1 mouse model develops cognition deficits and abundant Aβ deposits already at early age. The original mice were purchased from JAX (The Jackson Laboratory, USA) and maintained in our own colony at the University of Alabama in Birmingham. Before treatment, the mice were housed in a controlled environment (humidity 50–60%, temperature 22 °C, light from 06:00 a.m. to 6:00 p.m.) with 4 animals per cage in our facility with food and water available ad libitum. After the implantation of the Alzet minipumps the mice were housed individually.
In this study, we treated seven months old female APP/PS1 mice intraperitoneally by use of Alzet osmotic minipumps (Alzet osmotic mini pumps, model #1004, Alzet, USA). Mice were either treated with 5.3 mg/kg/day RD2 (n = 11) or placebo (0.9% sodium chloride solution) (n = 10) as control group. The Alzet minipumps were soaked in sterile 0.9% sodium chloride solution for 24 h before implantation. The next day, the pumps were filled with the appropriate solution and implanted intraperitoneally. In short, mice were anesthetised with isoflurane, the skin and the muscle layer below were cut in the midline and the pump was inserted in the abdominal cavity. Following placement of the pump, the wound was sutured. […]

The test system of series [2] is APP/PS1 mice. The experiment in a line: Open field test. Type of series: in vivo, mouse. Conditions: APP/PS1 mice after three weeks of 5.3 mg/kg/day RD2 i.p. The procedure:
(§1) In this study, we treated seven months old female APP/PS1 mice intraperitoneally by use of Alzet osmotic minipumps (Alzet osmotic mini pumps, model #1004, Alzet, USA). Mice were either treated with 5.3 mg/kg/day RD2 (n = 11) or placebo (0.9% sodium chloride solution) (n = 10) as control group. The Alzet minipumps were soaked in sterile 0.9% sodium chloride solution for 24 h before implantation. The next day, the pumps were filled with the appropriate solution and implanted intraperitoneally. In short, mice were anesthetised with isoflurane, the skin and the muscle layer below were cut in the midline and the pump was inserted in the abdominal cavity. Following placement of the pump, the wound was sutured. Three weeks after the implantations, the mice were tested in different behavioural set ups. 28 days after the implantations, the mice were sacrificed for histopathological analysis. All mice of both groups were included in the experiments described below.
The open field test was performed to evaluate the activity and anxiety behaviour of the mice. The arena (42 cm × 42 cm surrounded with clear Plexiglass sides (20 cm high)) was subdivided into two areas: border and centre. […] Time spent in both areas was analysed. After each testing day and in between the mice, the apparatus was wiped out with chlorhexidine and 70% ethanol and allowed to air-dry.

The test system of series [3] is PC-12 cells. Briefly: MTT cell viability assay, PC-12 cells. Format: cell-based, rat. Conditions: 5 µM RD2 without Aβ, one-way ANOVA n.s., p = 0.4. The protocol: (§2) MTT (3-(4,5-Dimethylthiazol-2-yl)-2,5-diphenyl-tetrazolium bromide) based cell viability assays were accomplished to examine the cytotoxicity of Aβ(1-42) in the presence of RD2 on two different cell lines, PC-12 (rat pheochromocytoma cell line), and SH-SY5Y (human neuroblastoma cell line) cells.
(§3) PC-12 cells (DSMZ, Germany) were cultured in DMEM medium supplemented with 10% fetal calf serum, 1% antibiotics (Penicillin/Streptomycin) (all Sigma-Aldrich, USA), and 5% horse serum (PAA Laboratories GmbH, Germany) on collagen A-coated (Biochrom GmbH, Germany) tissue culture flasks (SPL Life Sciences Co., Korea). SH-SY5Y cells (DSMZ, Germany) were cultured in DMEM medium supplemented with 20% fetal calf serum and 1% antibiotics (Penicillin/Streptomycin) (all Sigma-Aldrich, USA) on tissue culture flasks (SPL Life Sciences Co., Korea). Cells were allowed to grow in a humidified incubator with 5% CO2 at 37 °C and a maximum of 12 (PC-12 cells) or 21 (SH-SY5Y cells) passages. Medium was changed every two days and cells were passaged every three to five days, according to their confluence.
(§4) MTT test was performed according to the manufacturer’s protocol (CellProliferation Kit I; Roche, Switzerland). […] The arithmetic mean of all measurements per approach was calculated. Results are represented as the percentage of MTT reduction, assuming that the absorbance of control cells was 100%.
(In general: Tetrazolium dyes change colour on reduction, which living cells bring about.)

For series [4], the target named is T1, Aβ(1-42) oligomers (Homo sapiens, UniProt P05067).
T1 construct: Synthetic and recombinant Aβ(1-42) with >95% purity was purchased as lyophilized powder; purchased Bachem (Germany) (synthetic) / Isoloid (Germany) (recombinant)
T1 sequence (P05067 672-713 limits assumed): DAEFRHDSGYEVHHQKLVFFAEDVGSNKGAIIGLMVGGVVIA
The experiment in a line: QIAD assay (quantitative determination of interference with Aβ aggregate size distribution). Format: biochemical. The protocol: For the evaluation of Aβ oligomer elimination of RD2, a QIAD assay (quantitative determination of interference with Aβ aggregate size distribution) was performed according to Brener et al.[23]. Briefly, 80 µM Aβ(1-42) was pre-incubated for 4.5 h to enrich Aβ oligomers. Then either RD2 or D3 were added to the pre-incubated solution with the resulting concentration of 20 µM RD2 or D3 and co-incubated for further 40 min. The samples were loaded on top of a density gradient containing 5 to 50% (w/v) iodixanol (OptiPrep, Axis-Shield, Norway) and centrifuged for 3 h at 4 °C and 259.000 × g (Optima TL-100, Beckman Coulter, USA). After centrifugation, 14 fractions à 140 μl were harvested by upward displacement. Fraction 1 from the top of the gradient was the least dense fraction while fraction 14 from just above the bottom was the densest fraction. The pellet of each tube was mixed with 60 µl of a 6 M guanidine hydrochloride solution and boiled for 10 min. The resulting solution represents fraction 15. All fractions were analysed with respect to their Aβ(1-42) content by analytical RP-HPLC (reversed phase-high performance liquid chromatography) and UV absorbance detection at 214 nm. The data for the D3 values and the Aβ(1-42) controls without compounds were already previously used in Brener et al.[23]. Analyses were done at least in quadruplicates (D3 and RD2 n = 4, Aβ(1-42) n = 11). […]

Series [5] deals with SH-SY5Y cells. The experiment in a line: MTT cell viability assay, SH-SY5Y cells. Format: cell-based, human. Conditions: 5 µM RD2 without Aβ, one-way ANOVA n.s., p = 0.4. The protocol:
as §2, §3, §4

Series [6] addresses T2, Aβ(1-42) fibril formation (Homo sapiens, UniProt P05067).
T2 construct: Synthetic and recombinant Aβ(1-42) with >95% purity was purchased as lyophilized powder; purchased Bachem (Germany) (synthetic) / Isoloid (Germany) (recombinant)
Briefly: Thioflavin T (ThT) fibril formation assay. Format: biochemical. The note with it: 20 µM Aβ(1-42), 5 µM ThT, RD2 80-1.25 µM, 21 h, 37 °C; logistic fit; three replicates; read-out: IC50 of inhibition of Aβ(1-42) fibril formation. The protocol: The Thioflavin T (ThT) assay is a commonly used assay to visualize and quantify the fibrilisation of Aβ, since this dye binds to amyloidogenic cross-β-sheet structures. While Aβ aggregates into fibrils, the ThT fluorescence intensities increase until a saturation level is accomplished. Within this test, we analysed the inhibitory function of RD2 on the Aβ(1-42) fibril formation. 20 µM Aβ(1-42) was incubated with 5 µM ThT and different concentrations of RD2 (serial dilution from 80 µM till 1.25 µM) for IC50 calculation. ThT fluorescence was monitored over 21 h every 5 min at λex = 440 nm and λem = 490 nm in a fluorescence plate reader (Polarstar Optima, Germany) at 37 °C. Correction was done using all supplements without Aβ. For data evaluation, the fibril masses were determined by subtracting the baseline fluorescence intensities from the top and normalised to the Aβ control to calculate the inhibition in percent. The IC50 resulted from the compound concentration at the inflection point obtained by a logistic fit of the data (OriginPro 8.5 G, OriginLab, USA).

For series [7], the system named is APP/PS1 mice. The experiment in a line: Morris water maze. Type of series: in vivo, mouse. Conditions: 5.3 mg/kg/day RD2 i.p., placebo 19.0 ± 1 cm/s. The procedure:
as §1
The mice were tested daily for one week in a water maze. Our version of the Morris water maze consists of a blue circular tank (120 cm diameter) filled with clear water (22 °C ± 1 °C). […] Mice were recorded with a camera driven tracker system (Ethovision XT10, Noldus, The Netherlands). It was analysed the time the mice needed to escape to the hidden platform (escape latency) and the time they spent in the target quadrant (probe trial).

Series [8] concerns APP/PS1 mice. Briefly: Zero maze. Format: in vivo, mouse. The note with it: APP/PS1 mice after three weeks of 5.3 mg/kg/day RD2 i.p., mean ± SEM, placebo 5.0 ± 0.6. The procedure:
as §1
Similar to the open field test, the zero maze was used to assess the anxiety behaviour of the mice. The maze consisted of a circular arena (65 cm diameter) that is raised 40 cm above the table. The maze was separated into four equal parts, with two parts with 15 cm high walls of opaque material and two only 0.5 cm high walls. […] Analysed was the time mice spent in the open and closed arms. […]

For series [9] the following is noted: previous pharmacokinetic studies of D3 and RD2; cited from earlier work. From the text: Nowadays, the inhibition of the formation of Aβ oligomers and the elimination of already present Aβ oligomers is thought to be one of the most promising strategies to modify disease progression according to the modified amyloid cascade hypothesis. Currently registered drugs can only ameliorate symptoms and cannot slow down disease progression. Previously, we have reported about a D-enantiomeric peptide, named “D3”, which was identified by mirror image phage display and solely consists of D-enantiomeric amino acid residues[21],[22]. D3 inhibits the formation of regular Aβ fibrils, eliminates di ...

pIC50: −log10 of the molar value. Non-standard residues stand in square brackets, D forms with d. Residues, ends and D or L forms follow the SMILES beside them.

T2 sequence (P05067 672-713 limits assumed): as above

As to `CC(C)C[C@@H](NC(=O)[C@H](NC(=O)[C@H]1CCCN1)[C@H](C)O)C(=O)N[C@H](Cc1c[nH]cn1)C(=O)N[C@@H](C(=O)N[C@H](Cc1c[nH]cn1)C(=O)N[C@H](CC(N)=O)C(=O)N[C@H](CCCNC(=N)N)C(=O)N[C@H](CCCNC(=N)N)C(=O)N[C@H](CCCNC(=N)N)C(=O)N[C@H](CCCNC(=N)N)C(=O)N[C@H](CCCNC(=N)N)C(N)=O)[C@H](C)O` [RD2] (H-[dP][dT][dL][dH][dT][dH][dN][dR][dR][dR][dR][dR]-NH2), the “physiological parameters, general health and discomfort” value in series [1] (28 days) is on record as “neither changed any obvious physiological parameters”. The compound also registered a body weight in [1] (n = 11, placebo 25.7 ± 0.9 g, mean ± SEM, SEM) of 26.8 ± 0.8 g. The “speed in the open field” value in series [2] (mean ± SEM, placebo 8.9 ± 0.9 cm/s, SEM) came out at 8.8 ± 0.7 cm/s. Further, the “activity or anxiety levels versus placebo” value in series [2] (open field and zero maze tests) is “no significant differences in activity or anxiety levels”. Moreover, the “cell viability with RD2 alone compared to buffer control” value in [3] and in series [5] was “did not result in any change of cell viability” each time. Further, the “reduction of the amount of Aβ oligomers in fractions 4 to 6” value in series [4] (20 µM RD2 added to 80 µM Aβ(1-42) pre-incubated 4.5 h, co-incubated 40 min, density gradient centrifugation, RP-HPLC UV 214 nm, n = 4) stood at 71%. In addition, the pIC50 was 5.08 in [4] (QIAD with pooled fractions 4 to 6, 1-40 µM RD2 on 80 µM Aβ(1-42), logistic fit, n = 3, read-out: IC50 of Aβ(1-42) oligomer elimination) and 5.11 in series [6]. In addition, in [7], the “swimming speed in the Morris water maze” value amounted to 18.8 ± 1 cm/s. For the same compound, the “average speed of movement in the zero maze” value in series [8] turned out to be 4.8 ± 0.4 cm/s. In [9], the “bioavailability of RD2 compared to D3” value is recorded as “higher bioavailability”.

The term pIC50 denotes the negative decadic logarithm of the IC50, by convention in mol/L.
